The values below come from patent publication US10899759B2, “Positive allosteric modulators of the muscarinic acetylcholine receptor M1” (Vanderbilt University, priority 2016, dated 2021).

The target in this experiment is T1, human mAChR M1 (Homo sapiens, UniProt P11229).
T1 construct: host or cells: CHO-K1
T1 sequence (P11229 1-460): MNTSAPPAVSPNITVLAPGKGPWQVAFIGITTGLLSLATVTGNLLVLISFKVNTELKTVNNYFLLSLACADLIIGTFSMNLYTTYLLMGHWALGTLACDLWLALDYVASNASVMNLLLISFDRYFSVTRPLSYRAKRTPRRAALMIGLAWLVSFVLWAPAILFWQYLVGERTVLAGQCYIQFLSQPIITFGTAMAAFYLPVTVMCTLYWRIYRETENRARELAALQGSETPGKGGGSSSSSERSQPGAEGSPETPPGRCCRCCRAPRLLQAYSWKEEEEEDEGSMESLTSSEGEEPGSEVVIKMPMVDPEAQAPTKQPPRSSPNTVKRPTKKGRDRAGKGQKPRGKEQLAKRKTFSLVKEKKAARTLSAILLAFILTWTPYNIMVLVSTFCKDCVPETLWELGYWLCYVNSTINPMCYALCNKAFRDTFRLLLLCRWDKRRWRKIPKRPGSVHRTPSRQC
As to the kind of experiment: mAChR M1 cell-based functional assay (calcium mobilization, Fluo-4, FDSS). The conditions noted are these: CHO-K1 cells stably expressing hM1; for Emax: EC20 acetylcholine response, read-out: Human M1 Emax; for EC50: positive allosteric modulator activity as increase in the EC20 acetylcholine response. Put shortly: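 CHO-K1 cells stably expressing muscarinic receptor, loaded with Fluo-4; 11-point 1:3 compound series added and calcium flux read over 300 s at 1 Hz. Agonism from direct calcium rise, PAM activity as potentiation of EC20 acetylcholine, antagonism as decrease of EC80 acetylcholine; four-parameter logistic fits.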

For `Cn1ccc2c(Cc3ccc(-c4nccs4)cc3)cc(C(=O)NC3CCOC(C)(C)C3)nc21` (stereo not shown) [Compound 66, N-(2,2-dimethyltetrahydropyran-4-yl)-1-methyl-4-[(4-thiazol-2-ylphenyl)methyl]pyrrolo[2,3-b]pyridine-6-carboxamide], the Emax is 59.6% and the concentration for a half-maximal effect (EC50) amounted to 1650 nM.

Regarding `Cn1ccc2c(Cc3ccc(-c4nccs4)cc3)cc(C(=O)NC3CCOCC3(C)C)nc21` (stereo not shown) [Compound 67], the Emax stood at 61.2% and the EC50 turned out to be 1390 nM.

Consider `Cn1ccc2c(Cc3ccc(-c4nccs4)cc3)cc(C(=O)NCC3CCOCC3)nc21` [Compound 68, 1-methyl-N-(tetrahydropyran-4-ylmethyl)-4-[(4-thiazol-2-ylphenyl)methyl]pyrrolo[2,3-b]pyridine-6-carboxamide], for which the Emax stood at 37.9% and the EC50 was determined as 1450 nM.

On to `O=C(N[C@H]1CCCC[C@@H]1O)c1cc(Cc2ccc(-n3cccn3)cc2)c2ccsc2n1` [Compound 69, N-[(1S,2S)-2-hydroxycyclohexyl]-4-[(4-pyrazol-1-ylphenyl)methyl]thieno[2,3-b]pyridine-6-carboxamide], for which the Emax was found to be 52.9% and the EC50 was 30 nM.

In the case of `O=C(N[C@H]1CCOC[C@@H]1O)c1cc(Cc2ccc(-n3cccn3)cc2)c2ccsc2n1` [Compound 70], the Emax was 47.8% and the half-maximal effective concentration (EC50) amounted to 10 nM.

`O=C(NC1CCOCC1)c1cc(Cc2ccc(-n3cccn3)cc2)c2ccsc2n1` [Compound 71, 4-[(4-pyrazol-1-ylphenyl)methyl]-N-tetrahydropyran-4-yl-thieno[2,3-b]pyridine-6-carboxamide]: the Emax turned out to be 73.4% and the EC50 was found to be 140 nM.

Turning to `CC1(C)CC(NC(=O)c2cc(Cc3ccc(-n4cccn4)cc3)c3ccsc3n2)CCO1` (stereo not shown) [Compound 72, N-(2,2-dimethyltetrahydropyran-4-yl)-4-[(4-pyrazol-1-ylphenyl)methyl]thieno[2,3-b]pyridine-6-carboxamide], the Emax was 69% and the EC50 was 1420 nM.

In the case of `CC1CC(NC(=O)c2cc(Cc3ccc(-n4cccn4)cc3)c3ccsc3n2)CC(C)O1` (stereo not shown) [Compound 73, N-(2,6-dimethyltetrahydropyran-4-yl)-4-[(4-pyrazol-1-ylphenyl)methyl]thieno[2,3-b]pyridine-6-carboxamide], the Emax came out at 68.1% and the EC50 was 370 nM.

As for `CC1(C)COCCC1NC(=O)c1cc(Cc2ccc(-n3cccn3)cc2)c2ccsc2n1` (stereo not shown) [Compound 74, N-(3,3-dimethyltetrahydropyran-4-yl)-4-[(4-pyrazol-1-ylphenyl)methyl]thieno[2,3-b]pyridine-6-carboxamide], the Emax was determined as 69.1% and the half-maximal effective concentration (EC50) turned out to be 1290 nM.

Regarding `CC1COCCC1NC(=O)c1cc(Cc2ccc(-n3cccn3)cc2)c2ccsc2n1` (stereo not shown) [Compound 75], the Emax was 60.7% and the EC50 amounted to 490 nM.

As to `O=C(NCC1CCOCC1)c1cc(Cc2ccc(-n3cccn3)cc2)c2ccsc2n1` [Compound 76, 4-[(4-pyrazol-1-ylphenyl)methyl]-N-(tetrahydropyran-4-ylmethyl)thieno[2,3-b]pyridine-6-carboxamide], the Emax amounted to 68.8% and the EC50 stood at 420 nM.

Regarding `O=C(N[C@H]1CCOC1)c1cc(Cc2ccc(-n3cccn3)cc2)c2ccsc2n1` [Compound 77, 4-[(4-pyrazol-1-ylphenyl)methyl]-N-[(3S)-tetrahydrofuran-3-yl]thieno[2,3-b]pyridine-6-carboxamide], the Emax is 69.6% and the EC50 worked out at 390 nM.

`O=C(N[C@@H]1CCOC1)c1cc(Cc2ccc(-n3cccn3)cc2)c2ccsc2n1` [Compound 78, 4-[(4-pyrazol-1-ylphenyl)methyl]-N-[(3R)-tetrahydrofuran-3-yl]thieno[2,3-b]pyridine-6-carboxamide]: the Emax is 68.5% and the EC50 amounted to 1720 nM.

Take `O=C(NCC1CCOC1)c1cc(Cc2ccc(-n3cccn3)cc2)c2ccsc2n1` (stereo not shown) [Compound 79, 4-[(4-pyrazol-1-ylphenyl)methyl]-N-(tetrahydrofuran-3-ylmethyl)thieno[2,3-b]pyridine-6-carboxamide]: the Emax was 65.6% and the 50% effective concentration (EC50) was 2080 nM.

With `O=C(NC1CC2(COC2)C1)c1cc(Cc2ccc(-n3cccn3)cc2)c2ccsc2n1` [Compound 80, N-(2-oxaspiro[3.3]heptan-6-yl)-4-[(4-pyrazol-1-ylphenyl)methyl]thieno[2,3-b]pyridine-6-carboxamide], the Emax worked out at 72.3% and the EC50 was found to be 430 nM.

Turning to `O=C(NC1COC1)c1cc(Cc2ccc(-n3cccn3)cc2)c2ccsc2n1` [Compound 81, N-(oxetan-3-yl)-4-[(4-pyrazol-1-ylphenyl)methyl]thieno[2,3-b]pyridine-6-carboxamide], the Emax amounted to 69.4% and the EC50 came to 190 nM.

For `O=C(NC1CC(F)C1)c1cc(Cc2ccc(-n3cccn3)cc2)c2ccsc2n1` (stereo not shown) [Compound 82], the Emax stood at 69.6% and the EC50 was determined as 2090 nM.

For `O=C(NC1CC(F)(F)C1)c1cc(Cc2ccc(-n3cccn3)cc2)c2ccsc2n1` [Compound 83, N-(3,3-difluorocyclobutyl)-4-[(4-pyrazol-1-ylphenyl)methyl]thieno[2,3-b]pyridine-6-carboxamide], the Emax came to 74.8% and the EC50 was found to be 1770 nM.

`O=C(NCC1CCN1)c1cc(Cc2ccc(-n3cccn3)cc2)c2ccsc2n1` (stereo not shown) [Compound 84, N-(azetidin-2-ylmethyl)-4-[(4-pyrazol-1-ylphenyl)methyl]thieno[2,3-b]pyridine-6-carboxamide]: the maximal effect (Emax) turned out to be 42.7% and the EC50 was 1080 nM.

Turning to `COCCNC(=O)c1cc(Cc2ccc(-n3cccn3)cc2)c2ccsc2n1` [Compound 85, N-(2-methoxyethyl)-4-[(4-pyrazol-1-ylphenyl)methyl]thieno[2,3-b]pyridine-6-carboxamide], the maximal effect (Emax) amounted to 58.6% and the EC50 worked out at 70 nM.

On to `COCC(C)NC(=O)c1cc(Cc2ccc(-n3cccn3)cc2)c2ccsc2n1` (stereo not shown) [Compound 86, N-(2-methoxy-1-methyl-ethyl)-4-[(4-pyrazol-1-ylphenyl)methyl]thieno[2,3-b]pyridine-6-carboxamide], for which the Emax stood at 62% and the EC50 worked out at 690 nM.

`Cn1ccc(-c2ccc(Cc3cc(C(=O)NC4CCOCC4)nc4sccc34)cc2)n1` [Compound 87, 4-[[4-(1-methylpyrazol-3-yl)phenyl]methyl]-N-tetrahydropyran-4-yl-thieno[2,3-b]pyridine-6-carboxamide]: the Emax was 60.4% and the EC50 was 2130 nM.

For the compound `Cn1ccc(-c2ccc(Cc3cc(C(=O)N[C@H]4CCCC[C@@H]4O)nc4sccc34)cc2)n1` [Compound 88, N-[(1S,2S)-2-hydroxycyclohexyl]-4-[[4-(1-methylpyrazol-3-yl)phenyl]methyl]thieno[2,3-b]pyridine-6-carboxamide], the maximal response (Emax) is 62.4% and the EC50 turned out to be 50 nM.

As to `Cn1ccc(-c2ccc(Cc3cc(C(=O)N[C@H]4CCOC[C@@H]4O)nc4sccc34)cc2)n1` [Compound 89, N-[(3R,4S)-3-hydroxytetrahydropyran-4-yl]-4-[[4-(1-methylpyrazol-3-yl)phenyl]methyl]thieno[2,3-b]pyridine-6-carboxamide], the Emax worked out at 41.2% and the EC50 was found to be 40 nM.

For `Cn1ccc(-c2ccc(Cc3cc(C(=O)NC4CCOC(C)(C)C4)nc4sccc34)cc2)n1` (stereo not shown) [Compound 90, N-(2,2-dimethyltetrahydropyran-4-yl)-4-[[4-(1-methylpyrazol-3-yl)phenyl]methyl]thieno[2,3-b]pyridine-6-carboxamide], the Emax is 36.4% and the EC50 worked out at 10 nM.

For `CC1CC(NC(=O)c2cc(Cc3ccc(-c4ccn(C)n4)cc3)c3ccsc3n2)CC(C)O1` (stereo not shown) [Compound 91, N-(2,6-dimethyltetrahydropyran-4-yl)-4-[[4-(1-methylpyrazol-3-yl)phenyl]methyl]thieno[2,3-b]pyridine-6-carboxamide], the Emax was found to be 56.2% and the EC50 came out at 520 nM.

With `Cn1ccc(-c2ccc(Cc3cc(C(=O)NC4CCOCC4(C)C)nc4sccc34)cc2)n1` (stereo not shown) [Compound 92, N-(3,3-dimethyltetrahydropyran-4-yl)-4-[[4-(1-methylpyrazol-3-yl)phenyl]methyl]thieno[2,3-b]pyridine-6-carboxamide], the Emax stood at 61.6% and the EC50 was determined as 1180 nM.

In the case of `CC1COCCC1NC(=O)c1cc(Cc2ccc(-c3ccn(C)n3)cc2)c2ccsc2n1` (stereo not shown) [Compound 93, 4-[[4-(1-methylpyrazol-3-yl)phenyl]methyl]-N-(3-methyltetrahydropyran-4-yl)thieno[2,3-b]pyridine-6-carboxamide], the Emax came out at 59.5% and the EC50 is 740 nM.

In the case of `Cn1ccc(-c2ccc(Cc3cc(C(=O)NCC4CCOCC4)nc4sccc34)cc2)n1` [Compound 94, 4-[[4-(1-methylpyrazol-3-yl)phenyl]methyl]-N-(tetrahydropyran-4-ylmethyl)thieno[2,3-b]pyridine-6-carboxamide], the Emax came to 61.4% and the EC50 is 630 nM.
